Series [1] deals with TEADs. As to the kind of experiment: TEAD-specific 8×GTIIC-luciferase reporter assay. The series is classed as cell-based. Conditions: for inhibition at 10 µM: 8×GTIIC-luciferase, read-out: Luciferase reporter assay inhibitory rate. The method, then: A series of compounds featuring a chloromethyl ketone moiety were synthesized (Schemes 1-4). The inhibitory rate of this series of compounds was tested using 8×GTIIC-luciferase reporter assay at 10 μM.
Next, the inhibition of TEAD transcription activity of compounds was tested varying the dosage using the 8×GTIIC-luciferase reporter assay. […] The aim was to determine whether its inhibition of TEAD transcription can lead to downregulation of the YAP-TEAD target genes. CTGF is one of the best characterized (bona fide) target gene of YAP and TAZ.
To further investigate the mechanism of the inhibitory effect of compounds in Huh7 cells, TEADs specific luciferase reporter assays were performed with compounds 22 and 12 at several concentrations. […] TEAD downstream gene expression patterns were evaluated in liver cancer cells Huh7, which has been evidenced with relative high expression of YAP and TEAD2.
HEK 293T cells were plated at 2×10^4 cells/well in a 96 well microplate and were transfected with 50 ng of 8×GTIIC-luciferase plasmid (Addgene #34615) and 0.5 ng of pRL-CMV (Promega #E226A) by using lipofectamine 3000 (Life Technologies #L3000). The 8×GTIIc-luciferase reporter is a Yap/Taz-activity reporter containing eight TEAD consensus binding sequences. After 6 h, transfected cells were treated with various concentrations of compounds or DMSO control. Luciferase signals were measured using the Dual Luciferase Reporter Assay System (Promega, E1960) according to the manufacturer's instructions. Experiments were performed in triplicate and repeated at least three times.
On the technique in general: Reporter assays use an easily measured gene product as a stand-in for the process of interest.

Series [2] relates to Huh7 cells. Briefly: Huh7 cell proliferation assay (CCK8). Conditions: Homo sapiens. The series is classed as cell-based, human. The method, then:
CCK8 assay kit was used to determine antiproliferative activity of synthesized compounds against Huh7 cell line. First, Huh7 cells were seeded into 96-well plates at a density of 3000 cells/well and incubated overnight. Cells were then co-incubated with compounds at 8 concentrations for 72 h. Then, the cell proliferation was determined by the CCK8 kit according to the standard protocol. Experiments were performed in triplicate.

The test system of series [3] is AML12 cells. Briefly: AML12 normal liver cell growth inhibition (CCK8). To be noted: for Inhibitory rate, AML12 (inhibitory percentage of AML12 cell growth): 10 μM, 3 days. It is filed as cell-based.
Where [4] appears, read: Huh-7, 72 h, 3 days, CCK8, mean ± SD of three independent experiments, read-out: Cell proliferation assay IC50, Huh7.

SMILES strings stand for the structures. Read-outs that look alike come from different tables or passages of the source.

`O=C(CCl)c1c[nH]c2cc(Cl)c(OCc3ccccc3)cc12` [Compound 1, 1-(5-(benzyloxy)-6-chloro-1H-indol-3-yl)-2-chloroethan-1-one]: in series [1], the inhibition at 10 µM is 74.6%. Also, the IC50 in series [2] (setting [4]) was found to be 2.7 ± 0.2 µM. Further, in series [3], the “Inhibitory rate, AML12 (inhibitory percentage of AML12 cell growth)” value was determined as 36.2%.

Regarding `O=C(CCl)c1c[nH]c2cc(Cl)c(OCc3cccc4ccccc34)cc12` [Compound 3, 2-chloro-1-(6-chloro-5-(naphthalen-1-ylmethoxy)-1H-indol-3-yl)ethan-1-one], the inhibition at 10 µM in series [1] was found to be 69.4%. Also, in series [2] (setting [4]), the IC50 amounted to 1.6 ± 0.3 µM. The “Inhibitory rate, AML12 (inhibitory percentage of AML12 cell growth)” value in series [3] worked out at 50.3%.

In the case of `COc1cc2[nH]cc(C(=O)CCl)c2cc1OCc1ccccc1` [Compound 4, 1-(5-(benzyloxy)-6-methoxy-1H-indol-3-yl)-2-chloroethan-1-one], the inhibition at 10 µM in series [1] was 53.7%. Further, the IC50 in series [2] (setting [4]) is 3.8 ± 0.4 µM. In series [3], the “Inhibitory rate, AML12 (inhibitory percentage of AML12 cell growth)” value is 46.1%.

As for `COc1cc2[nH]cc(C(=O)CCl)c2cc1OCc1ccc2ccccc2c1` [Compound 5, 2-chloro-1-(6-methoxy-5-(naphthalen-2-ylmethoxy)-1H-indol-3-yl)ethan-1-one], the inhibition at 10 µM in series [1] came to 93.9%. For the same molecule, the “TEAD transcription inhibition, luciferase reporter” value in series [1] (varying dosage, FIGS. 3A-3B) is on record as “potent inhibition activity”. For the same molecule, in series [2] (setting [4]), the IC50 was 2.4 ± 0.5 µM. Also, in series [3], the “Toxicity towards normal liver cell line AML12” value is “high toxicity” and the “Inhibitory rate, AML12 (inhibitory percentage of AML12 cell growth)” value is on record as 77.4%.

Regarding `COc1cc2[nH]cc(C(=O)CCl)c2cc1OCc1cccc2ccccc12` [Compound 6, 2-chloro-1-(6-methoxy-5-(naphthalen-1-ylmethoxy)-1H-indol-3-yl)ethan-1-one], in series [1], the inhibition at 10 µM worked out at 64.5%. Further, the IC50 in series [2] (setting [4]) amounted to 2.5 ± 0.8 µM. The “Inhibitory rate, AML12 (inhibitory percentage of AML12 cell growth)” value in series [3] is 62.1%.

Regarding `O=C(CCl)c1c[nH]c2ccc(OCc3ccc4ccccc4c3)cc12` [Compound 7, 2-chloro-1-(5-(naphthalen-2-ylmethoxy)-1H-indol-3-yl)ethan-1-one], in series [1], the inhibition at 10 µM came out at 5.3%. Moreover, in series [2] (setting [4]), the IC50 was over 20 µM.

Consider `O=C(CCl)c1c[nH]c2ccc(OCc3ccccc3)cc12` [Compound 8, 1-(5-(benzyloxy)-1H-indol-3-yl)-2-chloroethan-1-one], for which, in series [1], the inhibition at 10 µM was 20.5%. Besides, the IC50 in series [2] (setting [4]) amounted to 10.5 ± 0.9 µM.

Take `C=CC(=O)NCc1c[nH]c2cc(Cl)c(OCc3ccc4ccccc4c3)cc12` [Compound 9, N-((6-chloro-5-(naphthalen-2-ylmethoxy)-1H-indol-3-yl)methyl)acrylamide]: the inhibition at 10 µM in series [1] stood at 1.5%. Besides, the IC50 in series [2] (setting [4]) was 30.2 ± 2.5 µM. Also, in series [3], the “Inhibitory rate, AML12 (inhibitory percentage of AML12 cell growth)” value came out at 0%.

As to `C=CC(=O)NCc1c[nH]c2cc(Cl)c(OCc3cccc4ccccc34)cc12` [Compound 10, N-((6-chloro-5-(naphthalen-1-ylmethoxy)-1H-indol-3-yl)methyl)acrylamide], in series [1], the inhibition at 10 µM amounted to 10.6%. For the same molecule, the IC50 in series [2] (setting [4]) was 14.4 ± 1.2 µM. Moreover, the “Inhibitory rate, AML12 (inhibitory percentage of AML12 cell growth)” value in series [3] stood at 0%.

On to `C=CC(=O)NCc1c[nH]c2cc(Cl)c(OCc3ccccc3)cc12` [Compound 11, N-((5-(benzyloxy)-6-chloro-1H-indol-3-yl)methyl)acrylamide], for which, in series [2] (setting [4]), the IC50 was over 50 µM. Moreover, the “Inhibitory rate, AML12 (inhibitory percentage of AML12 cell growth)” value in series [3] stood at 0%.

Take `O=C(CCl)NCc1c[nH]c2cc(Cl)c(OCc3ccc4ccccc4c3)cc12` [Compound 13, 2-chloro-N-((6-chloro-5-(naphthalen-2-ylmethoxy)-1H-indol-3-yl)methyl)acetamide]: the inhibition at 10 µM in series [1] was determined as 67.4%. Besides, in series [2] (setting [4]), the IC50 is 5.7 ± 1.3 µM. Besides, the “Inhibitory rate, AML12 (inhibitory percentage of AML12 cell growth)” value in series [3] turned out to be 43.4%.

As to `O=C(CCl)NCc1c[nH]c2cc(Cl)c(OCc3cccc4ccccc34)cc12` [Compound 14, 2-chloro-N-((6-chloro-5-(naphthalen-1-ylmethoxy)-1H-indol-3-yl)methyl)acetamide], the inhibition at 10 µM in series [1] is 81.5%. The IC50 was 0.8 ± 0.2 µM in series [2] (setting [4]) and 0.8 µM in series [2] (Huh-7, Table 3 column is in μM, read-out: Huh7 cell growth inhibition / proliferation IC50). Besides, the “Toxicity towards normal liver cell line AML12” value in series [3] is recorded as “significant cytotoxicity”. The “Inhibitory rate, AML12 (inhibitory percentage of AML12 cell growth)” value in series [3] was determined as 54.1%.

With `O=C(CCl)NCc1c[nH]c2cc(Cl)c(OCc3cccc(C(F)(F)F)c3)cc12` [Compound 15, 2-chloro-N-((6-chloro-5-((3-(trifluoromethyl)benzyl)oxy)-1H-indol-3-yl)methyl) acetamide], the inhibition at 10 µM in series [1] came out at 47.9%. In series [2] (setting [4]), the IC50 was 8.3 ± 0.8 µM. The “Inhibitory rate, AML12 (inhibitory percentage of AML12 cell growth)” value in series [3] is reported as 41.1%.

As for `N#C/C(=C\c1c[nH]c2cc(Cl)c(OCc3ccccc3)cc12)C(N)=O` [Compound 16, (E)-3-(5-(benzyloxy)-6-chloro-1H-indol-3-yl)-2-cyanoacrylamide], the IC50 in series [2] (setting [4]) was over 50 µM. Moreover, in series [3], the “Inhibitory rate, AML12 (inhibitory percentage of AML12 cell growth)” value is 0%.

Turning to `N#C/C(=C\c1c[nH]c2cc(Cl)c(OCc3ccc4ccccc4c3)cc12)C(N)=O` [Compound 17, (E)-3-(6-chloro-5-(naphthalen-2-ylmethoxy)-1H-indol-3-yl)-2-cyanoacrylamide], the inhibition at 10 µM in series [1] was determined as 47.3%. Also, the IC50 in series [2] (setting [4]) was 4.1 ± 0.6 µM. In series [3], the “Inhibitory rate, AML12 (inhibitory percentage of AML12 cell growth)” value amounted to 60.2%.

Turning to `N#C/C(=C\c1c[nH]c2cc(Cl)c(OCc3cccc4ccccc34)cc12)C(N)=O` [Compound 18, (E)-3-(6-chloro-5-(naphthalen-1-ylmethoxy)-1H-indol-3-yl)-2-cyanoacrylamide], the inhibition at 10 µM in series [1] is 51.3%. The “Inhibitory rate, AML12 (inhibitory percentage of AML12 cell growth)” value in series [3] amounted to 70.3%.

`N#C/C(=C\c1c[nH]c2cc(Cl)c(OCC3CCC(F)(F)CC3)cc12)C(N)=O` [Compound 19, (E)-3-(6-chloro-5-((4,4-difluorocyclohexyl)methoxy)-1H-indol-3-yl)-2-cyanoacrylamide]: the inhibition at 10 µM in series [1] came to 60.1%. The IC50 in series [2] (setting [4]) came out at 5.3 ± 0.5 µM. Besides, in series [3], the “Inhibitory rate, AML12 (inhibitory percentage of AML12 cell growth)” value was determined as 30.1%.

For the molecule `N#C/C(=C\c1c[nH]c2cc(Cl)c(OCc3ccc4ccccc4n3)cc12)C(N)=O` [Compound 20, (E)-3-(6-chloro-5-(quinolin-2-ylmethoxy)-1H-indol-3-yl)-2-cyanoacrylamide], the IC50 in series [2] (setting [4]) came to 68.7 ± 5.4 µM. Besides, the “Inhibitory rate, AML12 (inhibitory percentage of AML12 cell growth)” value in series [3] is 0%.

Consider `N#C/C(=C\c1c[nH]c2cc(Cl)c(OCc3cccc(C(F)(F)F)c3)cc12)C(N)=O` [Compound 21, 3-(6-chloro-5-((3-(trifluoromethyl)benzyl)oxy)-1H-indol-3-yl)-2-cyanoacrylamide], for which, in series [1], the inhibition at 10 µM was 59.7%. Further, in series [3], the “Inhibitory rate, AML12 (inhibitory percentage of AML12 cell growth)” value is on record as 97.1%.

`O=C(CCl)c1c[nH]c2cc(Cl)c(OCc3ccc(C(F)(F)F)cc3)cc12` [Compound 23, 2-chloro-1-(6-chloro-5-((4-(trifluoromethyl)benzyl)oxy)-1H-indol-3-yl)ethan-1-one]: the IC50 in series [2] (setting [4]) was found to be 16.9 µM.

As to `O=C(CCl)c1c[nH]c2cc(Cl)c(OCc3ccc(C(F)(F)F)c(F)c3)cc12` [Compound 24, 2-chloro-1-(6-chloro-5-((3-fluoro-4-(trifluoromethyl)benzyl)oxy)-1H-indol-3-yl)ethan-1-one], the IC50 in series [2] (setting [4]) came out at 1.8 µM.

Take `C=C(CN(C)C)C(=O)NCc1c[nH]c2cc(Cl)c(OCc3ccccc3)cc12` [Compound 25, N-((5-(benzyloxy)-6-chloro-1H-indol-3-yl)methyl)-2-((dimethylamino)methyl) acrylamide]: in series [1], the inhibition at 10 µM worked out at 71.8%. Moreover, the IC50 in series [2] (setting [4]) worked out at 2 ± 0.7 µM. Moreover, in series [3], the “Inhibitory rate, AML12 (inhibitory percentage of AML12 cell growth)” value is given as 37.2%.

The values are drawn from patent US20260337177A1, “TEAD CORE INHIBITORS FOR CANCER THERAPEUTICS” (University of Florida Research Foundation, Incorporated, priority 2023, published 2026).
